Where “and” joins values, the source holds several entries; their conditions need not be identical. Identical values can stand only once.
Legend:
[1] = molecular target: Delta-type opioid receptor (Homo sapiens, UniProt P41143)
[2] = molecular target: Alpha-1A adrenergic receptor (Homo sapiens, UniProt P35348)
[3] = molecular target: 5-hydroxytryptamine receptor 1E (Homo sapiens, UniProt P28566)
D(2) dopamine receptor = D(2) dopamine receptor (Rattus norvegicus, UniProt P61169)
[4] = molecular target: Muscarinic acetylcholine receptor M1 (Homo sapiens, UniProt P11229)
[5] = molecular target: 5-hydroxytryptamine receptor 5A (Homo sapiens, UniProt P47898)
[6] = molecular target: Muscarinic acetylcholine receptor M3 (Homo sapiens, UniProt P20309)
[7] = molecular target: Beta-2 adrenergic receptor (Homo sapiens, UniProt P07550)
[8] = molecular target: Alpha-2C adrenergic receptor (Homo sapiens, UniProt P18825)
[9] = molecular target: 5-hydroxytryptamine receptor 2A (Rattus norvegicus, UniProt P14842)
[10] = molecular target: Kappa-type opioid receptor (Homo sapiens, UniProt P41145)
[11] = molecular target: Sodium-dependent dopamine transporter (Bos taurus, UniProt P27922)
[12] = molecular target: Alpha-2A adrenergic receptor (Homo sapiens, UniProt P08913)
[13] = molecular target: Muscarinic acetylcholine receptor M4 (Homo sapiens, UniProt P08173)
Mu-type opioid receptor = Mu-type opioid receptor (Homo sapiens, UniProt P35372)
[14] = molecular target: Sodium-dependent serotonin transporter (Homo sapiens, UniProt P31645)
Vasopressin V1b receptor = Vasopressin V1b receptor (Homo sapiens, UniProt P47901)
[15] = molecular target: 5-hydroxytryptamine receptor 1D (Homo sapiens, UniProt P28221)
[16] = molecular target: Alpha-2B adrenergic receptor (Homo sapiens, UniProt P18089)
[17] = molecular target: Gamma-aminobutyric acid type B receptor subunit 1 (UniProt Q9Z0U4)
D(1B) dopamine receptor = D(1B) dopamine receptor (Homo sapiens, UniProt P21918)
[18] = molecular target: Beta-1 adrenergic receptor (Homo sapiens, UniProt P08588)
[19] = molecular target: 5-hydroxytryptamine receptor 2C (Rattus norvegicus, UniProt P08909)
[20] = molecular target: Alpha-1B adrenergic receptor (Homo sapiens, UniProt P35368)
[21] = molecular target: 5-hydroxytryptamine receptor 7 (Homo sapiens, UniProt P34969)
D(1A) dopamine receptor = D(1A) dopamine receptor (Homo sapiens, UniProt P21728)
D(4) dopamine receptor = D(4) dopamine receptor (Rattus norvegicus, UniProt P30729)
[22] = molecular target: Sodium-dependent noradrenaline transporter (Homo sapiens, UniProt P23975)
[23] = molecular target: Muscarinic acetylcholine receptor M5 (Homo sapiens, UniProt P08912)
[24] = molecular target: Glutamate receptor ionotropic, NMDA 1 (Rattus norvegicus, UniProt P35439)

Chain of 5-hydroxytryptamine receptor 1D (P28221 whole entry): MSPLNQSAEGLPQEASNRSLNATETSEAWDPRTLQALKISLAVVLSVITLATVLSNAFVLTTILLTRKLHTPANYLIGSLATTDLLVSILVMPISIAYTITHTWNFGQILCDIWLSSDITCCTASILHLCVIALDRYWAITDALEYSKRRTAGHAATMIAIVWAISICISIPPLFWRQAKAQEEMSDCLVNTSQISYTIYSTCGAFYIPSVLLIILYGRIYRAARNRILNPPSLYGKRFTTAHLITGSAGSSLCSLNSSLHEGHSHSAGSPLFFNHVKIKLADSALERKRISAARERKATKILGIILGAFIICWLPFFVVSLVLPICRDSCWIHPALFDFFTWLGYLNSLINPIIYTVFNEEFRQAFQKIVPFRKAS
Chain of Alpha-2C adrenergic receptor (P18825 whole entry): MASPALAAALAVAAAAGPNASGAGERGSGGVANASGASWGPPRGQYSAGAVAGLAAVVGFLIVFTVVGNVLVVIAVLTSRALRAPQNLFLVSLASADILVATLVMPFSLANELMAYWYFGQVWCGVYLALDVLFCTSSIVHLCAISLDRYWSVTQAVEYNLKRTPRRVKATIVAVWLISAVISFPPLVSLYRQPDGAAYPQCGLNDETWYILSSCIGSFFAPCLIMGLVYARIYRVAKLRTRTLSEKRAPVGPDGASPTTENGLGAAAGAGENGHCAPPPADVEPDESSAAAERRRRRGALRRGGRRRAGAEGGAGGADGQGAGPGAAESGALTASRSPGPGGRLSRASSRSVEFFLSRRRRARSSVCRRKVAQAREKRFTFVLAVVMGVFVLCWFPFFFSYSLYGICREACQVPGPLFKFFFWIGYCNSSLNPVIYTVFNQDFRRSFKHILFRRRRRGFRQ
Chain of Muscarinic acetylcholine receptor M3 (P20309 whole entry): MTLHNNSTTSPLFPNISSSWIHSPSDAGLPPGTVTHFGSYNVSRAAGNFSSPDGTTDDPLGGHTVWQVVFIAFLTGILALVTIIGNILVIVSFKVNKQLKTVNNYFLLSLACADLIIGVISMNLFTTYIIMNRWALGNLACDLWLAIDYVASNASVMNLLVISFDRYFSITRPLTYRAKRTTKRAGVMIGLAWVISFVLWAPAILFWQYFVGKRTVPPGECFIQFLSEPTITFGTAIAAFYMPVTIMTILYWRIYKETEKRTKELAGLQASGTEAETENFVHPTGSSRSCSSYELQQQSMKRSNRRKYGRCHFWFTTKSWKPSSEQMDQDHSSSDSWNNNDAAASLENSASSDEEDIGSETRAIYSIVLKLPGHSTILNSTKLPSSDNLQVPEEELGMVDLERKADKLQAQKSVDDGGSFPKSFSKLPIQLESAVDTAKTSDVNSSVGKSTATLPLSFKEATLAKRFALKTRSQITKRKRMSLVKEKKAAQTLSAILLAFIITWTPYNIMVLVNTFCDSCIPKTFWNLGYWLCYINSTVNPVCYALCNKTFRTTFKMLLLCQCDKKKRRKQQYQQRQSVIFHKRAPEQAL
Chain of Beta-1 adrenergic receptor (P08588 whole entry): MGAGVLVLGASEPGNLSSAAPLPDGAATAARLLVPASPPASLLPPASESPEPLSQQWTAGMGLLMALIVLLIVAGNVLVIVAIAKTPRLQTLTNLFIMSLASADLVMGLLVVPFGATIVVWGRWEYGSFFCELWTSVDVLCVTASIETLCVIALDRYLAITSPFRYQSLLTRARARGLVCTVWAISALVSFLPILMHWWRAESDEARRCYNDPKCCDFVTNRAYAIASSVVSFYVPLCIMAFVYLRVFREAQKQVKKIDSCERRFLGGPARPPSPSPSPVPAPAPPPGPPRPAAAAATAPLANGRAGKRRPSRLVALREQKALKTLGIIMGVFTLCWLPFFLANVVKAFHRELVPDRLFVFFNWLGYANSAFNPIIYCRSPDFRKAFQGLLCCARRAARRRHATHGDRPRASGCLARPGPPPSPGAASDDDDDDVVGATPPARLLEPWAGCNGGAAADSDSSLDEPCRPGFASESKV
Chain of 5-hydroxytryptamine receptor 7 (P34969 whole entry): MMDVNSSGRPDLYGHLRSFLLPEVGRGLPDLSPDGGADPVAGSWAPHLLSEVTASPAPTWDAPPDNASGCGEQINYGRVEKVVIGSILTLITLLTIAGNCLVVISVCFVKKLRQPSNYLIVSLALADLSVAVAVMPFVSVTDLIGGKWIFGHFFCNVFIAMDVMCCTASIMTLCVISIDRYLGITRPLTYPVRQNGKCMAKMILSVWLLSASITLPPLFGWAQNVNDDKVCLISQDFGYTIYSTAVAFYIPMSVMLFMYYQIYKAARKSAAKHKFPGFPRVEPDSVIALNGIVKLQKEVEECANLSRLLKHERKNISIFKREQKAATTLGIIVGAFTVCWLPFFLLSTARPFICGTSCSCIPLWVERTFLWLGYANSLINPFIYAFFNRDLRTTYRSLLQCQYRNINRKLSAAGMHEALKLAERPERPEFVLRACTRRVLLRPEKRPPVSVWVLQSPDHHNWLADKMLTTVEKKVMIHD
Chain of Muscarinic acetylcholine receptor M1 (P11229 whole entry): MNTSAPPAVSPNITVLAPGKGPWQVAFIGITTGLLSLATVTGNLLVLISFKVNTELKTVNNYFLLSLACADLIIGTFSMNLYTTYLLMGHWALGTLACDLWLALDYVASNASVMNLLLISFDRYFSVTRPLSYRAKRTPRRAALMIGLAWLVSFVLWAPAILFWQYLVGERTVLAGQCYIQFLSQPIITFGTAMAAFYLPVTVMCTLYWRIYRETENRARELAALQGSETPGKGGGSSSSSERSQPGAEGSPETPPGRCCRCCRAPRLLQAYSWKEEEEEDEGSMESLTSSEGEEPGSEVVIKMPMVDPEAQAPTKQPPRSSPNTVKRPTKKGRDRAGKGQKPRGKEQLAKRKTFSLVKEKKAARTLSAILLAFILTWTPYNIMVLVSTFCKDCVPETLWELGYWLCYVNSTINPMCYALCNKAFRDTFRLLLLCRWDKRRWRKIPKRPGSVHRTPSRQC
Chain of Beta-2 adrenergic receptor (P07550 whole entry): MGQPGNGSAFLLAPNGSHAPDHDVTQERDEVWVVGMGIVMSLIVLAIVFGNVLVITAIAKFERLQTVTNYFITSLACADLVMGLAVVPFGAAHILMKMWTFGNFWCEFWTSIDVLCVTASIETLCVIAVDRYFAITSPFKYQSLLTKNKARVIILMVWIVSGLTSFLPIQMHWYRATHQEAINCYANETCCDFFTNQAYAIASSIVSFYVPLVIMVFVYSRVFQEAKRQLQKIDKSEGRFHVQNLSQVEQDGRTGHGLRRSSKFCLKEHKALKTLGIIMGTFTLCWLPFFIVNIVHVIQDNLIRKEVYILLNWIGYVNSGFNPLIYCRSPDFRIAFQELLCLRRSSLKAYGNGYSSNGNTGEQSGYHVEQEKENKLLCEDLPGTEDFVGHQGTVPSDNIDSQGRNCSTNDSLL
Chain of Muscarinic acetylcholine receptor M5 (P08912 whole entry): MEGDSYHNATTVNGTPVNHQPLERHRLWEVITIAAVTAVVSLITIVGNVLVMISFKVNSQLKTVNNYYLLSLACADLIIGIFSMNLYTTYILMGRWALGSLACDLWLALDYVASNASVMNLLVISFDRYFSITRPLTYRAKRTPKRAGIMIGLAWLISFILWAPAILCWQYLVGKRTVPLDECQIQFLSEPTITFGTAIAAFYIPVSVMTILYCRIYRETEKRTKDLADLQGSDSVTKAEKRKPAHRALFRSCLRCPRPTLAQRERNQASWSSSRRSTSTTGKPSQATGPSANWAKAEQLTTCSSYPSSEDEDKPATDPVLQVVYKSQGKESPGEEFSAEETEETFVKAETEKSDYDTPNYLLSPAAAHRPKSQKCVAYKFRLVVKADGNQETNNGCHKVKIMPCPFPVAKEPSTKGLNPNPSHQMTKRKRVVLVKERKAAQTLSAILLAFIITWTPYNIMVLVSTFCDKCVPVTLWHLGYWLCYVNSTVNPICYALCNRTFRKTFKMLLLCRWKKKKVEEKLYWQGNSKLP
Chain of Alpha-1B adrenergic receptor (P35368 whole entry): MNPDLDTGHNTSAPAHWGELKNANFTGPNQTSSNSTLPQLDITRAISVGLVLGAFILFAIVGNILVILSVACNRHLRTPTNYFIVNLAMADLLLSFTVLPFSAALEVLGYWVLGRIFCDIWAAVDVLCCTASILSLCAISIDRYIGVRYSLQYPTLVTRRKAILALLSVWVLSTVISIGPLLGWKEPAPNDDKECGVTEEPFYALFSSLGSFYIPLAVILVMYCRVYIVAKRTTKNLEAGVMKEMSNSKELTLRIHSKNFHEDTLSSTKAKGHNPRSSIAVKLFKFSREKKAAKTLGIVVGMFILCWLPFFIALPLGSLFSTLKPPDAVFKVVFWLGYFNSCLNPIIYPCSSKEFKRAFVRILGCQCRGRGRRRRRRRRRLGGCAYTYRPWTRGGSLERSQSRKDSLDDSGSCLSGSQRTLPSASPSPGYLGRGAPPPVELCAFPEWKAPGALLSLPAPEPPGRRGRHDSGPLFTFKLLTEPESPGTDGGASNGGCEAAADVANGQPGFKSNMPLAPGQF
Chain of Alpha-2A adrenergic receptor (P08913 whole entry): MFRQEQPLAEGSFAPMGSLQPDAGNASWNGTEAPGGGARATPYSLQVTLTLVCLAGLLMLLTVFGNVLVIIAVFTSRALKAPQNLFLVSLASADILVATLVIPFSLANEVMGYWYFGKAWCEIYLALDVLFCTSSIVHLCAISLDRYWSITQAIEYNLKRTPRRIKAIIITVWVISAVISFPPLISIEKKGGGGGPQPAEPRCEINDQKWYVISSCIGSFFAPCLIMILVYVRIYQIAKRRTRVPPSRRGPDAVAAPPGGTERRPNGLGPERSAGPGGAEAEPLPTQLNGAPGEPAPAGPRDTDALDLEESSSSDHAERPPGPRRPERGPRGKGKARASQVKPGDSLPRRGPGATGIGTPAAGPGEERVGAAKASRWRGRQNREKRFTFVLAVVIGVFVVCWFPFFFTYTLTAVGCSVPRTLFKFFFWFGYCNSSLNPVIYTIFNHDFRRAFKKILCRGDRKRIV

With `CC(CF)NCC(O)COc1cccc2[nH]c3ccccc3c12` [Fluorocarazolol,(S)] the Ki [1] was over 10 µM, the Ki [2] was 3.2 µM and 0.611 µM and the Ki [3] was over 10 µM. The Ki (D(2) dopamine receptor) was over 10 µM, the Ki [4] was 2.73 µM and 1.75 µM and the Ki [5] was over 10 µM. For the same molecule, the Ki [6] was > 10 µM and 1.59 µM, the Ki [7] was 0.138 nM and 0.079 nM and the Ki [8] was 1.89 µM and 4.4 µM. The Ki [9] was over 10 µM, the Ki [10] was over 10 µM and the Ki [11] was over 10 µM. For the same molecule, the Ki [12] was 3.36 µM and 2.87 µM, the Ki [13] was 5.41 µM and > 10 µM and the Ki (Mu-type opioid receptor) was over 10 µM. The Ki [14] was over 10 µM, the Ki (Vasopressin V1b receptor) was over 10 µM and the Ki [15] was 3.28 µM and 3.09 µM. The Ki [16] was > 10 µM and 8.85 µM, the Ki [17] was over 10 µM and the Ki (D(1B) dopamine receptor) was over 10 µM. For the same molecule, the Ki [18] was 0.00045 µM and 0.000114 µM, the Ki [19] was over 10 µM and the Ki [20] was 4.6 µM and 0.677 µM. For the same molecule, the Ki [21] was 7.07 µM and 6.4 µM, the Ki (D(1A) dopamine receptor) was over 10 µM and the Ki (D(4) dopamine receptor) was over 10 µM. The Ki [22] was over 10 µM, the Ki [23] was 4.88 µM and 5.89 µM and the Ki [24] was over 10 µM.

Reference: BindingDB's records for doi:10.1007/s002130100844 (Case Western Reserve University, 2001)
